Test results as given in PubChem BioAssay AID1845202 (Molecular Pharmacology Branch, DTP, NCI, 2023).

Tested on: DMS 114 tumor spheroids, viability % test/control
Test: Anticancer human tumor DMS 114 cell line growth inhibition;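 note: spheroids exposed to compounds for 7 days before read-out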;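 for viability, T/C: luminescence used as a proxy for viable cells; 100% = DMSO vehicle control viability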
Settings: spheroids with HUVEC and MSC; for IC50: curve of first compound; for viability, T/C: stronger effect = lower value
Source text: Multicellular complex tumor spheroid response to DNA repair inhibitors in combination with DNA-damaging drugs
This study explores the anticancer activities of DNA-damaging drugs and inhibitors of DNA damage repair, both as single agents and in combinations. Complex tumor spheroids comprised of malignant cells, endothelial cells and mesenchymal stem cells served as an in vitro model for human solid tumors. This model system incorporates physiologically relevant features and patient-derived or established malignant cell lines with clinically relevant genetic alterations from many tumor types. Twenty-six patient-derived or established malignant cell lines were evaluated representing sarcoma, melanoma, small cell lung cancer (SCLC), non-small cell lung cancer (NSCLC), as well as bladder, ovarian and pancreatic cancers. The concentration ranges selected for each drug and investigational agent were based upon clinically achievable concentrations if the clinical Cmax of the agent was known.
Compounds. The drugs and compounds olaparib (NSC753686), talazoparib (NSC767125), berzosertib (NSC777718), elimusertib (NSC800525), nedisertib (NSC802822), VX-984 (NSC792969), AZD-1390 (NSC803789), temozolomide (NSC362856), topotecan (NSC609699), trabectedin (NSC813783), staurosporine (NSC755774), and gemcitabine (NSC613327) were obtained from the National Cancer Institute (NCI) Developmental Therapeutics Program Chemical Repository. The FDA-approved anticancer drug set is available from the Developmental Therapeutics Program at https://dtp.cancer.gov/organization/dscb/obtaining/available_plates.htm. […] The stock solutions were prepared in dimethyl sulfoxide (DMSO, Sigma-Aldrich, St. Louis, MO, cat. D2650) at 400-fold the tested concentration and stored at -70 degrees C. Prior to their use, the stock solutions were diluted in fresh medium and the final DMSO concentration in the assay was 0.25% (v/v). All drugs and investigational agents were tested over a range starting from a high concentration at or near the clinical Cmax and decreasing in half-log increments. If the clinical Cmax for an agent had not been determined, the highest concentration tested was 10 microM.
Cell Lines. The patient-derived cancer cell (PDC) lines: 156681-154-R-J1-PDC, 283228-195-R-J1-PDC, 287954-098-R-J1-PDC, 292921-168-R-J2-PDC, 349418-098-R-PDC, 425362-245-T-J1-PDC, 556581-035-R-J1-PDC, and BL0293-F563-PDC were received from the NCI Patient-Derived Models Repository (PDMR, https://pdmr.cancer.gov). The established cell lines HS-SY-2 (RRID:CVCL_8719), MPNST, and SYO-1 (RRID:CVCL_7146) were obtained from the Sloan Kettering Institute. The alveolar soft parts sarcoma cell line ASPS-1 (RRID:CVCL_S738) was established at the NCI and grown from internal seed stocks. The following established cell lines were purchased from the American Type Culture Collection (ATCC, Manassas, VA): G-401 (ATCC, cat. CRL-1441, RRID:CVCL_0270), SW982 (ATCC, cat. HTB-93, RRID:CVCL_1734), VA-ES-BJ (ATCC, cat. CRL-2138, RRID:CVCL_1785), NCI-H719 (ATCC, cat. CRL-5837, RRID:CVCL_1582), NCI-H196 (ATCC, cat. CRL-5823, RRID:CVCL_1509), NCI-H841 (ATCC, cat. CRL-5845, RRID:CVCL_1595), NCI-H1618 (ATCC, cat. CRL-5879, RRID:CVCL_1480), NCI-H1876 (ATCC, cat. CRL-5902, RRID:CVCL_1503), DMS 114 (ATCC, cat. CRL-2066; RRID:CVCL_1174), NCI-H211 (ATCC, cat. CRL-5824; RRID:CVCL_1529), and SW 1271 (ATCC, cat. CRL-2177, RRID:CVCL_1716). The small cell lung cancer cell line COR-L88 was purchased from Sigma-Aldrich (cat. 92031917-1VL, RRID:CVCL_1141). The non-small cell lung cancer cell lines NCI-H226 (RRID:CVCL_1544) and NCI-H322M (RRID:CVCL_1557) were established at the NCI and grown from internal seed stocks. Pooled donor human umbilical vein endothelial cells (HUVEC, Lonza, cat. CC-2519) and human mesenchymal stem cells (hMSC, Lonza, cat. PT-2501) were purchased from Lonza (Walkersville, MD).
Cell Culture. All cells were maintained in an incubator at 37 degrees C and 5% CO2 with 95% humidity. […]

[1] = second compound 0.003 µM, first compound 0.0949 µM
[2] = second compound 0.003 µM, first compound 0.3 µM
[3] = second compound 0.003 µM, first compound 0.949 µM
[4] = second compound 0.003 µM, first compound 3 µM
[5] = second compound 0.00949 µM, first compound 0.0949 µM
[6] = second compound 0.00949 µM, first compound 0.3 µM
[7] = second compound 0.00949 µM, first compound 0.949 µM
[8] = second compound 0.00949 µM, first compound 3 µM
[9] = second compound 0.03 µM, first compound 0.0949 µM
[10] = second compound 0.03 µM, first compound 0.3 µM
[11] = second compound 0.03 µM, first compound 0.949 µM
[12] = second compound 0.03 µM, first compound 3 µM
[13] = second compound 0.0949 µM, first compound 0.0949 µM
[14] = second compound 0.0949 µM, first compound 0.3 µM
[15] = second compound 0.0949 µM, first compound 0.949 µM
[16] = second compound 0.0949 µM, first compound 3 µM
[17] = second compound 0.3 µM, first compound 0.0949 µM
[18] = second compound 0.3 µM, first compound 0.3 µM
[19] = second compound 0.3 µM, first compound 0.949 µM
[20] = second compound 0.3 µM, first compound 3 µM

SMILES | IC50 (second compound 0.003 µM) | IC50 (second compound 0.00949 µM) | IC50 (second compound 0.03 µM) | IC50 (second compound 0.0949 µM) | IC50 (second compound 0.3 µM) | viability, T/C [1] | viability, T/C [2] | viability, T/C [3] | viability, T/C [4] | viability, T/C [5] | viability, T/C [6] | viability, T/C [7] | viability, T/C [8] | viability, T/C [9] | viability, T/C [10] | viability, T/C [11] | viability, T/C [12] | viability, T/C [13] | viability, T/C [14] | viability, T/C [15] | other results
Cn1ncnc1[C@H]1c2n[nH]c(=O)c3cc(F)cc(c23)N[C@@H]1c1ccc(F)cc1 + CC[C@@]1(O)C(=O)OCc2c1cc1n(c2=O)Cc2cc3c(CN(C)C)c(O)ccc3nc2-1 | 178 nM | < 9.49 nM | < 9.49 nM | < 9.49 nM | < 9.49 nM | 62% | 38.9% | 25.2% | 8.5% | 32.6% | 25.3% | 16.4% | 9.08% | 16.2% | 14% | 10% | 4.96% | 10.9% | 10.4% | 6.74% | viability, T/C (second compound 0.003 µM, first compound 0.00949 µM): 80.7%; viability, T/C (second compound 0.003 µM, first compound 0.03 µM): 72.9%; viability, T/C (second compound 0.00949 µM, first compound 0.00949 µM): 50.9%; viability, T/C (second compound 0.00949 µM, first compound 0.03 µM): 37.5%; viability, T/C (second compound 0.03 µM, first compound 0.00949 µM): 18.6%; viability, T/C (second compound 0.03 µM, first compound 0.03 µM): 18.6%; viability, T/C (second compound 0.0949 µM, first compound 0.00949 µM): 12.8%; viability, T/C (second compound 0.0949 µM, first compound 0.03 µM): 10.6%; viability, T/C [16]: 3.77%; viability, T/C (second compound 0.3 µM, first compound 0.00949 µM): 7.76%; viability, T/C (second compound 0.3 µM, first compound 0.03 µM): 7.9%; viability, T/C [17]: 7.53%; viability, T/C [18]: 5.94%; viability, T/C [19]: 5.76%; viability, T/C [20]: 2.99%
O=C(c1cc(Cc2n[nH]c(=O)c3ccccc23)ccc1F)N1CCN(C(=O)C2CC2)CC1 + CC[C@@]1(O)C(=O)OCc2c1cc1n(c2=O)Cc2cc3c(CN(C)C)c(O)ccc3nc2-1 | 5040 nM | 1830 nM | < 94.9 nM | < 94.9 nM | < 94.9 nM | 104% | 98.3% | 96.9% | 68.6% | 69.3% | 64.6% | 64.9% | 39.1% | 24% | 21.4% | 22.6% | 17.8% | 12.9% | 13.9% | 13.4% | viability, T/C (second compound 0.003 µM, first compound 9.49 µM): 27.3%; viability, T/C (second compound 0.003 µM, first compound 30 µM): 19.7%; viability, T/C (second compound 0.00949 µM, first compound 9.49 µM): 23.8%; viability, T/C (second compound 0.00949 µM, first compound 30 µM): 18%; viability, T/C (second compound 0.03 µM, first compound 9.49 µM): 13.2%; viability, T/C (second compound 0.03 µM, first compound 30 µM): 12.6%; viability, T/C [16]: 11.2%; viability, T/C (second compound 0.0949 µM, first compound 9.49 µM): 9.09%; viability, T/C (second compound 0.0949 µM, first compound 30 µM): 9.45%; viability, T/C [17]: 8.39%; viability, T/C [18]: 8.45%; viability, T/C [19]: 9.03%; viability, T/C [20]: 6.88%; viability, T/C (second compound 0.3 µM, first compound 9.49 µM): 5.76%; viability, T/C (second compound 0.3 µM, first compound 30 µM): 6.93%
